Laboratory results: patent US20250177558A1, “Functionalized Nanoclusters and Their Use in Treating Bacterial Infections” (priority 2022, published 2025)
Entries after “also recorded” stand apart in the source; their conditions may differ. Like-named read-outs stand apart in the source and are kept apart here.

Key:
PAO1Cip21 = assay: Disc diffusion susceptibility (cross-resistance); type: cell-based, Pseudomonas aeruginosa; details: isolate after 21 passages in subinhibitory Ciprofloxacin; 5 μg discs
Experimental: In brief, glycerol stocks of each bacteria were streaked on LB plates and grown overnight at 37° C. An inoculum was prepared by diluting several individual colonies in PBS with a 0.5 McFarland Standard turbidity. The inoculum was then spread with sterile cotton swabs on Mueller Hinton agar plates supplemented with 5% sheep blood. Discs containing 5 μg of antipseudomonal drugs were dispensed on the surface of the plate. After 24 h incubation at 37° C., the inhibition zone was measured using a digital calliper.

[1] = single injection, mice, ref [79], cited from earlier work
P. aeruginosa (PAO1) = type: cell-based, Pseudomonas aeruginosa; details: 21 passages in sub-MIC dosing; MIC at passage n/initial MIC
Experimental: The fold change in minimum inhibitory concentration (MIC) was measured as the ratio between the MIC at passage n/initial MIC.
To test this idea, we repeated our serial passaging study with two biologically independent cultures of PAO1.
Serial passage MICs were performed in 96-well microtiter panels. First, an aliquot of the well with the highest concentration permitting growth was taken and back diluted ( 1/100) in new media from inoculated microtiter panels. […] Panels were incubated according to CLSI guidelines, MICs were recorded, and the next inoculum was prepared from the well containing the highest drug concentration that identically allowed growth as described above. Twenty-one repeat passages were performed.

[2] = test system: stationary phase culture of gram-negative bacteria; details: conventional antibiotics, refs [54-56]; cited from earlier work
[3] = test system: Ofloxacin-induced persister cells of P. aeruginosa (PA14); assay: Bactericidal activity against persister cells; type: cell-based, Pseudomonas aeruginosa; details: ATP up to 10 mM, persister cells 10^8 CFU/ml
Experimental: Therefore, the 48-h-old-stationary phase was treated with Ofloxacin for 24 h to eradicate non-persister cells (FIG. 5A). Ofloxacin was used at 415 µM, corresponding to 30-fold the MIC for the PAO1 wild-type strain. The surviving persister cells were concentrated and redispersed in phosphate-buffered saline (PBS) to prevent persister cells from awakening from their metabolically repressed state.
Persister cells of the P. aeruginosa (PA14) were isolated by treating 250 ml of stationary phase cultures with Ofloxacin (415 µM final concentration). After 24 h treatment, the samples were washed with PBS, and then persister cells were concentred in 10 ml of PBS. The number of persister cells was estimated by serially diluting to determine the colony-forming unit per millilitre (CFU/ml).
All the bactericidal tests were performed on PBS without a carbon source to prevent persister cells from waking up from their low metabolic activity. Ofloxacin-induced persister cells were challenged with antimicrobial agents at the concentrations listed in the text. After the survival bacteria were washed 3× with PBS, the pellet was resuspended in 100 μL of PBS and then spread on an LB plate. The plate was incubated for 72 h at 37° C. before assessing growth.

[4] = test system: stationary phase culture of P. aeruginosa (PA14); assay: Intracellular reactive oxygen species (DCFH-DA); type: cell-based, Pseudomonas aeruginosa; details: relative to PBS-treated group
Experimental: FIGS. 12A-12B. […] (FIG. 12A) Schematic showing how intracellular ROS was determined using the fluorescent probe 2′,7′-dichlorofluorescein diacetate (DCFH-DA).
Cumulatively, the data in this section support that after transiting through OM, AuNC@ATP leads to the fusion of the inner leaflet of OM with the outer leaflet of the cytoplasmic membrane, which leads to bacteria death without cell lysis.
DCFH-DA (2′,7′-dichlorofluorescein diacetate) dye was applied to test the intracellular ROS concentration, which could be cleaved by the intracellular non-specific esterase into the DCFH. DCFH, in the presence of ROS, would be further oxidized into fluorescent DCF (2′,7′-dichlorofluorescein). DCFH-DA in DMSO (10 μM) was added to the treated bacterial solution and further incubated at 37° C., 200 rpm for 15 min. After that, the bacterial cells were centrifuged at 8000 g for 5 min, washed three times with PBS, and resuspended in ultrapure water to the original volume (1 mL). The microplate reader was used to measure the concentration of the produced DCF at the excitation/emission wavelength of 488/525 nm. In this experiment, the fluorescence intensity of DCF directly reflects the amount of ROS generation. […] Finally, the relative ROS production level was calculated by normalizing the ROS level from the treated groups with the production level of the PBS-treated group.

[5] = test system: Acinetobacter baumannii (A. baumannii); details: ref [69], cited from earlier work

C[C@H]1[C@H](NC(=O)/C(=N\OC(C)(C)C(=O)O)c2csc(N)n2)C(=O)N1S(=O)(=O)O [aztreonam]
inhibition zone diameter compared to the ancestor PAO1 (PAO1Cip21): decrease in inhibition zone diameter

tobramycin sulphate
LD50 ([1]; IP): 262 mg/kg | LD50 ([1]; IV): 77 mg/kg

NC[C@H]1O[C@H](O[C@H]2[C@H](O)[C@@H](O[C@H]3O[C@H](CO)[C@@H](O)[C@H](N)[C@H]3O)[C@H](N)C[C@@H]2N)[C@H](N)C[C@@H]1O [Tobramycin]
inhibition zone diameter compared to the ancestor PAO1 (PAO1Cip21): decrease in inhibition zone diameter | resistance development: increase in MIC (P. aeruginosa (PAO1)): more than 30 fold

Colistin
cell lysis [2]: cause bacteria cell lysis | inhibition zone diameter compared to the ancestor PAO1 (PAO1Cip21): decrease in inhibition zone diameter

Nc1ncnc2c1ncn2[C@@H]1O[C@H](COP(=O)(O)OP(=O)(O)OP(=O)(O)O)[C@@H](O)[C@H]1O [ATP, adenosine triphosphate]
eradication of persister cells by ATP ligand alone [3]: No eradication was observed; also recorded: did not show bactericidal activity

CC1COc2c(N3CCN(C)CC3)c(F)cc3c(=O)c(C(=O)O)cn1c23 (centres unmarked) [Ofloxacin]
ROS production [4]: 1.2 fold-change | resistance development: increase in MIC (P. aeruginosa (PAO1)): > 1500 fold

Polymyxin-B
inhibition zone diameter compared to the ancestor PAO1 (PAO1Cip21): decrease in inhibition zone diameter

NCC[C@H](O)C(=O)N[C@@H]1C[C@H](N)[C@@H](O[C@H]2O[C@H](CN)[C@@H](O)[C@H](O)[C@H]2O)[C@H](O)[C@H]1O[C@H]1O[C@H](CO)[C@@H](O)[C@H](N)[C@H]1O [Amikacin]
inhibition zone diameter compared to the ancestor PAO1 (PAO1Cip21): decrease in inhibition zone diameter | persister cells formed by A. baumannii in the presence of antibiotic [5]: 0.07%

CC1(C)S[C@@H]2[C@H](NC(=O)C(C(=O)O)c3ccccc3)C(=O)N2[C@H]1C(=O)O (some centres unmarked) [carbenicillin]
persister cells formed by A. baumannii in the presence of antibiotic [5]: 0.02%

C[C@@H](O)[C@H]1C(=O)N2C(C(=O)O)=C(S[C@@H]3CN[C@H](C(=O)N(C)C)C3)[C@H](C)[C@H]12 [Meropenem]
inhibition zone diameter compared to the ancestor PAO1 (PAO1Cip21): decrease in inhibition zone diameter

CO/N=C(\C(=O)N[C@@H]1C(=O)N2C(C(=O)[O-])=C(C[N+]3(C)CCCC3)CS[C@H]12)c1csc(N)n1 [Cefepime]
inhibition zone diameter compared to the ancestor PAO1 (PAO1Cip21): decrease in inhibition zone diameter

Cn1c2cccc(=O)c-2nc2ccccc21 [PYO, pyocyanin]
increase of persister cells in the presence of PYO ([5]; with amikacin): 4 fold | increase of persister cells in the presence of PYO ([5]; with carbenicillin): 3 fold

O=C(O)c1cn(C2CC2)c2cc(N3CCNCC3)c(F)cc2c1=O [Ciprofloxacin]
resistance development: increase in MIC (P. aeruginosa (PAO1)): more than 250 fold

CC(C)(O/N=C(\C(=O)N[C@@H]1C(=O)N2C(C(=O)[O-])=C(C[n+]3ccccc3)CS[C@H]12)c1csc(N)n1)C(=O)O [Ceftazidime]
inhibition zone diameter compared to the ancestor PAO1 (PAO1Cip21): decrease in inhibition zone diameter
